Patent publication US20250340529A1, “Heterocyclic Compounds as Immunomodulators of PD-L1 Interactions” (Ascletis BioScience Co., Ltd, priority 2021, published 2025)
pEC50, pIC50: −log10 of the molar value.

Legend:
[1] = tested on: Hep3B-OS8-hPDL1 / Jurkat-NFAT-PD1 cells; test: PDL1 Jurkat-NFAT reporter assay; assay type: cell-based; settings: Homo sapiens; 6 hours, luciferase
Protocol: PDL1 Jurkat-NFAT Reporter Assay
a. Preparation of Hep3B-OS8-hPDL1 • 1. Hep3B-OS8-hPDL1 cells were cultured in 1640 medium supplemented with 10% fetal bovine serum, 1% penicillin and streptomycin, in which 100 μg/mL G418 and Hygromycin B were also added. • 2. Cells were re-suspended with RPMI 1640 medium containing 10% FBS and the cell density was adjusted to 1.25E5 cells/mL. • 3. Cells were seeded into 96-well flat bottom plate (1.25E4 cells/100 μL/well). b. Compounds Solutions Preparation • 4. Remove the medium from pre-plated Hep3B-OS8-PDL1 cells. Wash once with 200 μL Assay Medium. • 5. Prepare the Compounds dilutions in RPMI 1640 medium with 10% FBS according to the Layout. • 6. Add compounds into each well in a volume of 50 μL in 9 concentrations (3, 1, 0.3, 0.1, 0.03, 0.01, 0.003, 0.001 and 0.0003 μM)}. Keytruda will be included as positive control at the concentration of 5 μg/mL. • 7. Incubate for 20-30 min at 37° C., 5% CO2. c. Preparation of Jurkat-NFAT-PD1 • 8. Jurkat-NFAT-PD1 cells were cultured in 1640 medium supplemented with 10% fetal bovine serum, 1% penicillin and streptomycin, in which 1000 μg/mL Hygromycin B and 0.3 μg/mL puromycin were also added. • 9. On the second day of assay, the cells were re-suspended with RPMI 1640 medium containing 10% FBS and the cell density was adjusted to 2.5E5 cells/mL. • 10. […]

[2] = tested on: Hep3B-OS8-hPDL1 cells and CD3+ T cells; test: Hep3B-OS8-hPDL1 and T cells co-culture assay (IFN-γ by ELISA); assay type: cell-based; settings: Homo sapiens, T-cell, 72 hours, read-out: Tumor and T Cell EC50 (nm)
Protocol: a. Hep3B-OS8-hPDL1 and T Cells Co-Culture Assay
• 1. Hep3B-OS8-hPDL1 cells were cultured in 1640 medium supplemented with 10% fetal bovine serum, 1% penicillin and streptomycin, in which 100 μg/mL G418 and Hygromycin B were also added. • 2. Hep3B-OS8-hPDL1 cells were harvested and treated with 10 μg/mL mitomycin C at 37° C. for 1.5 h, and the cells were then washed thoroughly with PBS for four times. • 3. Cells were re-suspended with RPMI 1640 medium containing 10% FBS and the cell density was adjusted to 5E5 cells/mL. • 4. Cells were seeded into 96-well flat bottom plate (2.5E4 cells/50 μL/well). b. CD3+ T Cells Isolation (30 mL Blood) • 5. The human blood sample from an individual donor is diluted by the same volume of sterile PBS, for instance add 25 mL sterile PBS into 25 mL fresh whole blood and mix sufficiently by gentle shake. • 6. Transfer 15 mL Lymphoprep medium into a new 50 mL centrifuge tube. • 7. Add the diluted blood sample as soft as possible onto the surface of the Ficoll medium to make sure there is a clear dividing line between the two liquids, and the volume ratio between Ficoll and diluted blood (30 mL) is 1:2. • 8. Move the tube gently to centrifuge, at 1000×g, 25 min, 20° C., with the acceleration (5) and Min deceleration (0) settings during the centrifugation. • 9. Four interfaces in all could be observed after the centrifugation, which are layers of plasma, mononuclear cells, the Ficoll medium and RBCs from top to bottom, and move the tube as gently as possible so as keep the four interfaces separated. Absorb and transfer the second layer of mononuclear cells into another new sterile centrifuge tube carefully, and absorb certain volume of plasma instead of the Ficoll medium if inevitable. • 10. Add sterile PBS of the three times the volume of PBMCs in the tube with PBMC. • 11. Wash the cells twice with 5-10 mL PBS before cell counting with cytometer. Centrifuge at 350×g, 10 min, 20° C. With the acceleration (5) and deceleration (5) settings during the centrifugation. • 12. Resuspend the cells with recommended medium and adjust the density of the PBMCs to the final concentration of 5E7 cells/mL. • 13. Isolate CD3+ T cells with EasySep™ Human T Cell Isolation Kit (STEMCELL Technologies #17951), and the cells were seeded into 96-well flat bottom plate (5E4 cells/100 μL/well). c. Compounds solutions preparation • 14. Prepare the Compounds dilutions in RPMI 1640 medium with 10% FBS according to the Layout. 15. Add compounds into each well in a volume of 50 μL. {3 compounds (GLC01-258, GLC01-269, GLC01-465) in 7 concentrations (0.03, 0.1, 0.3, 1, 3, 10 and 30 μM) and 6 compounds (GLC01-411, GLC01-292, GLC01-445, GLC01-475, GLC01-470 and GLC01-468) in the same concentration (1 μM)}. • 16. […]

PD-1/PD-L1 = PD-1/PD-L1 (Homo sapiens (Human), UniProt Q9NZQ7); test: PD-1/PD-L1 Homogeneous Time-Resolved Fluorescence (HTRF) binding assay; settings: 3 nM PD1, 10 nM PD-L1, 25° C., PBS pH 7.4
PD-1/PD-L1, sequence (Q9NZQ7 19-238): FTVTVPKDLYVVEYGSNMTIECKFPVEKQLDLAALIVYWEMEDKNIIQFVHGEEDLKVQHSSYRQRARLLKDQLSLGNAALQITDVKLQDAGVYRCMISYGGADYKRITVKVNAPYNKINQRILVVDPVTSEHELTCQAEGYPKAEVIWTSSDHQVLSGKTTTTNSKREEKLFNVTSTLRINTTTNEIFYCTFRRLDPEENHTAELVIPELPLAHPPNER
Method in brief: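 HTRF with His-tagged human PD-L1 (19-238, 10 nM) and Fc-tagged human PD-1 (25-167, 3 nM) preincubated with inhibitors 40 min in PBS pH 7.4, 0.05% Tween-20, 0.1% BSA, 1% DMSO, 25° C. Eu anti-human IgG and anti-His-APC added, 60 min; 665/620 nm ratio; IC50 from percent control activity fit.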

| pEC50 [1] | pEC50 [2] | pIC50 (PD-1/PD-L1) | Structure (SMILES) |
| --- | --- | --- | --- |
| 9.52 | 8.92 | 8.45 | O=C(O)[C@H](CO)NCCN1C(=O)COc2cc(-c3cccc(-c4cccc(-c5ccc6c(c5)OCC(=O)N6CCN[C@@H](CO)C(=O)O)c4Cl)c3Cl)ccc21 [Compound 465] |
| 6.95 | 6.49 | 8.06 | O=C1COc2cc(-c3cccc(-c4cccc(-c5ccc6c(c5)OCC(=O)N6C[C@H]5CCCN5)c4Cl)c3Cl)ccc2N1C[C@H]1CCCN1 [Compound 529] |
